The values below come from patent publication US12594276B2, “Inhibitors of human immunodeficiency virus replication” (ViiV Healthcare UK (No.5) Limited, priority 2024, dated 2026).

The nature of data set [1]: Compound cytotoxicity, XTT-based colorimetric assay. Particulars: human; uninfected MT2 cells, day 4, XTT; read-out: CC50. The format is cell-based. The essentials: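 Follows the antiviral assay procedure, but with uninfected MT2 cells. On day 4, cell viability is measured by XTT-based colorimetry, giving CC50 values.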
A general note: Tetrazolium assays rely on reduction of a dye to a coloured formazan, in cell work by metabolically active cells.

For data set [2], the system named is recombinant NL4-3 virus (nef section replaced with Renilla luciferase gene) in MT-2 cells. In words: HIV cell culture assay (antiviral activity, luciferase readout). It counts as cell-based. Particulars: Renilla, NL43, MT-2 cells infected for 4-5 days with recombinant NL4-3 Renilla luciferase virus. The essentials: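 EC50 was derived by median-effect fitting of Renilla luciferase signal from MT-2 cells. These cells were infected for 4–5 days with NL4-3 reporter virus (nef partly replaced by luciferase; made in 293T cells) in the presence of serially diluted compound. Activity was quantified with a live-cell luciferase substrate.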

Usually CC50 stands for the concentration at which the toxic effect on the cells reaches its halfway point. One may read the EC50 as the concentration giving half of the maximal effect. For `CC1(F)CCN(CCn2nc(NS(C)(=O)=O)c3c(Cl)ccc(-n4c([C@H](Cc5cc(F)cc(F)c5)NC(=O)Cn5nc(C(F)F)c6c5C(F)(F)[C@@H]5C[C@H]65)nc5nc(C6CCC(F)(F)CC6)ccc5c4=O)c32)CC1` (atropisomer, axis not shown; (P)) [Example 167, N-[(1S)-1-[(3P)-3-{4-chloro-1-[2-(4-fluoro-4-methylpiperidin-1-yl)ethyl]-3-methanesulfonamido-1H-indazol-7-yl}-7-(4,4-difluorocyclohexyl)-4-oxo-3H,4H-pyrido[2,3-d]pyrimidin-2-yl]-2-(3,5-difluorophenyl)ethyl]-2-[(2S,4R)-9-(difluoromethyl)-5,5-difluoro-7,8-diazatricyclo[4.3.0.0^2,^4]nona-1(6),8-dien-7-yl]acetamide], the CC50 at 4 days in data set [1] is more than 50 nM. Besides, the EC50 in data set [2] was 0.024 nM.
In the same order, the values of `CS(=O)(=O)Nc1nn(CCN2CCCC(F)(F)C2)c2c(-n3c([C@H](Cc4cc(F)cc(F)c4)NC(=O)Cn4nc(C(F)F)c5c4C(F)(F)[C@@H]4C[C@H]54)nc4nc(C5CCC(F)(F)CC5)ccc4c3=O)ccc(Cl)c12` (atropisomer, axis not shown; (P)) [Example 168, N-[(1S)-1-[(3P)-3-{4-chloro-1-[2-(3,3-difluoropiperidin-1-yl)ethyl]-3-methanesulfonamido-1H-indazol-7-yl}-7-(4,4-difluorocyclohexyl)-4-oxo-3H,4H-pyrido[2,3-d]pyrimidin-2-yl]-2-(3,5-difluorophenyl)ethyl]-2-[(2S,4R)-9-(difluoromethyl)-5,5-difluoro-7,8-diazatricyclo[4.3.0.0^2,^4]nona-1(6),8-dien-7-yl]acetamide] are more than 50 nM and 0.018 nM.
Take `CS(=O)(=O)Nc1nn(CCN2CCC3(CC2)COC3)c2c(-n3c([C@H](Cc4cc(F)cc(F)c4)NC(=O)Cn4nc(C(F)F)c5c4C(F)(F)[C@@H]4C[C@H]54)nc4nc(C5CCC(F)(F)CC5)ccc4c3=O)ccc(Cl)c12` (atropisomer, axis not shown; (P)) [Example 170, N-[(1S)-1-[(3P)-3-[4-chloro-3-methanesulfonamido-1-(2-{2-oxa-7-azaspiro[3.5]nonan-7-yl}ethyl)-1H-indazol-7-yl]-7-(4,4-difluorocyclohexyl)-4-oxo-3H,4H-pyrido[2,3-d]pyrimidin-2-yl]-2-(3,5-difluorophenyl)ethyl]-2-[(2S,4R)-9-(difluoromethyl)-5,5-difluoro-7,8-diazatricyclo[4.3.0.0^2,^4]nona-1(6),8-dien-7-yl]acetamide]: in data set [1], the CC50 at 4 days is more than 50 nM. In data set [2], the concentration giving a half-maximal response (EC50) was 0.032 nM.
Consider `CS(=O)(=O)Nc1nn(CCN2CCOC3(CC3)C2)c2c(-n3c([C@H](Cc4cc(F)cc(F)c4)NC(=O)Cn4nc(C(F)F)c5c4C(F)(F)[C@@H]4C[C@H]54)nc4nc(C5CCC(F)(F)CC5)ccc4c3=O)ccc(Cl)c12` (atropisomer, axis not shown; (P)) [Example 176, N-[(1S)-1-[(3P)-3-[4-chloro-3-methanesulfonamido-1-(2-{4-oxa-7-azaspiro[2.5]octan-7-yl}ethyl)-1H-indazol-7-yl]-7-(4,4-difluorocyclohexyl)-4-oxo-3H,4H-pyrido[2,3-d]pyrimidin-2-yl]-2-(3,5-difluorophenyl)ethyl]-2-[(2S,4R)-9-(difluoromethyl)-5,5-difluoro-7,8-diazatricyclo[4.3.0.0^2,^4]nona-1(6),8-dien-7-yl]acetamide], for which the CC50 at 4 days in data set [1] is more than 50 nM. The concentration giving a half-maximal response (EC50) in data set [2] came out at 0.018 nM.
For `CC(C)S(=O)(=O)N1CCN(CCn2nc(NS(C)(=O)=O)c3c(Cl)ccc(-n4c([C@H](Cc5cc(F)cc(F)c5)NC(=O)Cn5nc(C(F)F)c6c5C(F)(F)[C@@H]5C[C@H]65)nc5nc(C6CCC(F)(F)CC6)ccc5c4=O)c32)CC1` (atropisomer, axis not shown; (P)) [Example 195, N-[(1S)-1-[(3P)-3-(4-chloro-3-methanesulfonamido-1-{2-[4-(propane-2-sulfonyl)piperazin-1-yl]ethyl}-1H-indazol-7-yl)-7-(4,4-difluorocyclohexyl)-4-oxo-3H,4H-pyrido[2,3-d]pyrimidin-2-yl]-2-(3,5-difluorophenyl)ethyl]-2-[(2S,4R)-9-(difluoromethyl)-5,5-difluoro-7,8-diazatricyclo[4.3.0.0^2,^4]nona-1(6),8-dien-7-yl]acetamide], the CC50 at 4 days in data set [1] is more than 50 nM. Besides, in data set [2], the concentration giving a half-maximal response (EC50) came to 0.037 nM.
Turning to `CS(=O)(=O)Nc1nn(CCN2CC[C@H](F)C2)c2c(-n3c([C@H](Cc4cc(F)cc(F)c4)NC(=O)Cn4nc(C(F)F)c5c4C(F)(F)[C@@H]4C[C@H]54)nc4nc(C5CCC(F)(F)CC5)ccc4c3=O)ccc(Cl)c12` (atropisomer, axis not shown; (P)) [Example 207, N-[(1S)-1-[(3P)-3-(4-chloro-1-{2-[(3S)-3-fluoropyrrolidin-1-yl]ethyl}-3-methanesulfonamido-1H-indazol-7-yl)-7-(4,4-difluorocyclohexyl)-4-oxo-3H,4H-pyrido[2,3-d]pyrimidin-2-yl]-2-(3,5-difluorophenyl)ethyl]-2-[(2S,4R)-9-(difluoromethyl)-5,5-difluoro-7,8-diazatricyclo[4.3.0.0^2,^4]nona-1(6),8-dien-7-yl]acetamide], in data set [1], the 50% cytotoxic concentration (CC50) at 4 days is more than 50 nM. Moreover, in data set [2], the half-maximal effective concentration (EC50) stood at 0.013 nM.
Turning to `CS(=O)(=O)Nc1nn(CCN2CC[C@@H](F)C2)c2c(-n3c([C@H](Cc4cc(F)cc(F)c4)NC(=O)Cn4nc(C(F)F)c5c4C(F)(F)[C@@H]4C[C@H]54)nc4nc(C5CCC(F)(F)CC5)ccc4c3=O)ccc(Cl)c12` (atropisomer, axis not shown; (P)) [Example 208, N-[(1S)-1-[(3P)-3-(4-chloro-1-{2-[(3R)-3-fluoropyrrolidin-1-yl]ethyl}-3-methanesulfonamido-1H-indazol-7-yl)-7-(4,4-difluorocyclohexyl)-4-oxo-3H,4H-pyrido[2,3-d]pyrimidin-2-yl]-2-(3,5-difluorophenyl)ethyl]-2-[(2S,4R)-9-(difluoromethyl)-5,5-difluoro-7,8-diazatricyclo[4.3.0.0^2,^4]nona-1(6),8-dien-7-yl]acetamide], the 50% cytotoxic concentration (CC50) at 4 days in data set [1] is more than 50 nM. Also, the EC50 in data set [2] came to 0.009 nM.
On to `Cc1cc(C2CCC(F)(F)CC2)nc2nc([C@H](Cc3cc(F)cc(F)c3)NC(=O)Cn3nc(C(F)F)c4c3C(F)(F)[C@@H]3C[C@H]43)n(-c3ccc(Cl)c4c(NS(C)(=O)=O)nn(CCN5CC(F)(F)C5)c34)c(=O)c12` (atropisomer, axis not shown; (P)) [Example 229, N-[(1S)-1-[(3P)-3-{4-chloro-1-[2-(3,3-difluoroazetidin-1-yl)ethyl]-3-methanesulfonamido-1H-indazol-7-yl}-7-(4,4-difluorocyclohexyl)-5-methyl-4-oxo-3H,4H-pyrido[2,3-d]pyrimidin-2-yl]-2-(3,5-difluorophenyl)ethyl]-2-[(2S,4R)-9-(difluoromethyl)-5,5-difluoro-7,8-diazatricyclo[4.3.0.0^2,4]nona-1(6),8-dien-7-yl]acetamide], for which the half-maximal cytotoxic concentration (CC50) at 4 days in data set [1] is more than 50 nM. In addition, the concentration giving a half-maximal response (EC50) in data set [2] amounted to 0.013 nM.
Turning to `Cc1cc(C2CCC(F)(F)CC2)nc2nc([C@H](Cc3cc(F)cc(F)c3)NC(=O)Cn3nc(C4CC4)c4c3C[C@@H]3C[C@H]43)n(-c3ccc(Cl)c4c(NS(C)(=O)=O)nn(CCN5C[C@@H](C)O[C@@H](C)C5)c34)c(=O)c12` (atropisomer, axis not shown; (P)) [Example 230, N-[(1S)-1-[(3P)-3-(4-chloro-1-{2-[(2R,6S)-2,6-dimethylmorpholin-4-yl]ethyl}-3-methanesulfonamido-1H-indazol-7-yl)-7-(4,4-difluorocyclohexyl)-5-methyl-4-oxo-3H,4H-pyrido[2,3-d]pyrimidin-2-yl]-2-(3,5-difluorophenyl)ethyl]-2-[(2S,4S)-9-cyclopropyl-7,8-diazatricyclo[4.3.0.0^2,^4]nona-1(6),8-dien-7-yl]acetamide], the 50% cytotoxic concentration (CC50) at 4 days in data set [1] was more than 50 nM. For the same compound, the EC50 in data set [2] amounted to 0.006 nM.
`Cc1cc(C2CCC(F)(F)CC2)nc2nc([C@H](Cc3cc(F)cc(F)c3)NC(=O)Cn3nc(C(F)F)c4c3C(F)(F)[C@@H]3C[C@H]43)n(-c3ccc(Cl)c4c(NS(C)(=O)=O)nn(CCN5CCC(F)(F)C5)c34)c(=O)c12` (atropisomer, axis not shown; (P)) [Example 231, N-[(1S)-1-[(3P)-3-{4-chloro-1-[2-(3,3-difluoropyrrolidin-1-yl)ethyl]-3-methanesulfonamido-1H-indazol-7-yl}-7-(4,4-difluorocyclohexyl)-5-methyl-4-oxo-3H,4H-pyrido[2,3-d]pyrimidin-2-yl]-2-(3,5-difluorophenyl)ethyl]-2-[(2S,4R)-9-(difluoromethyl)-5,5-difluoro-7,8-diazatricyclo[4.3.0.0^2,^4]nona-1(6),8-dien-7-yl]acetamide]: the cytotoxic concentration (CC50) at 4 days in data set [1] was more than 50 nM. In addition, the EC50 in data set [2] was 0.01 nM.
Turning to `Cc1cc(C2CCC(F)(F)CC2)nc2nc([C@H](Cc3cc(F)cc(F)c3)NC(=O)Cn3nc(C4CC4)c4c3C[C@@H]3C[C@H]43)n(-c3ccc(Cl)c4c(NS(C)(=O)=O)nn(CCN5CCC(F)(F)C5)c34)c(=O)c12` (atropisomer, axis not shown; (P)) [Example 232, N-[(1S)-1-[(3P)-3-{4-chloro-1-[2-(3,3-difluoropyrrolidin-1-yl)ethyl]-3-methanesulfonamido-1H-indazol-7-yl}-7-(4,4-difluorocyclohexyl)-5-methyl-4-oxo-3H,4H-pyrido[2,3-d]pyrimidin-2-yl]-2-(3,5-difluorophenyl)ethyl]-2-[(2S,4S)-9-cyclopropyl-7,8-diazatricyclo[4.3.0.0^2,^4]nona-1(6),8-dien-7-yl]acetamide], the 50% cytotoxic concentration (CC50) at 4 days in data set [1] was more than 50 nM. For the same compound, the EC50 in data set [2] was found to be 0.009 nM.
